Experimental data: patent publication US20110191867A1
Read-outs that look alike come from different tables or passages of the source.

Tests used:
[1] = system: serum antibodies of test subjects
[2] = system: commercial polyclonal antibody from rabbit; assay: ELISA control: commercial polyclonal antibody binding to peptide coated on a maleimide plate
Excerpt: A commercial peptide […] (HA11-peptide), which has been used as a recognition tag on recombinant proteins was used as a control and for testing of analysis of binding between a free core peptide and human antibodies. Due to restricted availability of at least N-terminal sequence the peptide would not be very effective in immunization against the viral as therapy. This peptide is known to be antigenic in animals under immunization conditions and antibodies including polyclonals from rabbit, mice etc.

[3] = system: serum antibodies of test subjects; remark: listed apart in the source
[4] = system: natural human antibodies
[5] = system: natural human antibodies; format: binding

Biotin-aminocaproyl-CRPRVRNICG-NH4 [Peptide 1C]
comparison of the cyclic and linear peptide, reactivity with sera [1]: more reactive with all subjects except S3B | reaction with serum of test subject [1]: weaker reaction | reactivity with sera of test subjects [1]: Strong responses were observed from the serum of test subjects S5B an S7B

CYPYDVPDYA [HA11-N Cys, commercial peptide used as a recognition tag on recombinant proteins, used as a control]
binding of commercial polyclonal antibody from rabbit to the peptide [2]: effective binding

Biotin-aminocaproyl-CRPWVRGVC [Peptide 4B]
antibody binding, cyclic peptide compared with corresponding linear peptide ([3]; sera S1B-S8B, FIG. 8): bind generally more strongly antibodies than the corresponding linear peptide 3

Biotin-aminocaproyl-CRPKVRDQC [Peptide 3B]
reaction with serum of test subject [1]: weaker reaction | serum antibody response ([3]; person S5B, vaccinated against influenza, FIG. 5): unusually high response

Biotin-aminohexanoyl-SYACKR [Peptide P2-N]
immune response of the 6 sera, order of reactivity [4]: sera 2 and 5 showed strongest immune response before sera 3, 4 and 6, while serum 1 showed weakest reaction | immune response of the 6 sera, order of reactivity [5]: reacted with sera similarily but reactions with serum 5 was weaker and the serum 6 showed the strongest reponse

Biotin-aminohexanoyl-SKAYSNC [Peptide P1-N]
immune response of the 6 sera, order of reactivity [4]: sera 3 and 4 showed strongest immune response before serum 2, while sera 1, 5 and 6 were weakly or non-reactive | immune response of the 6 sera, order of reactivity [5]: reacted with sera in the order from strongest to weaker: 6, 3, 4, and 2, while 1 and 5 were weakly or non-reactive
